# Reference: US20250009774A1, “COMPOSITIONS AND METHODS USING A COMBINATION OF OLEUROPEIN AND MAGNESIUM” (SOCIETE DES PRODUITS NESTLE S.A., priority 2021, published 2025)
# Test system: myotubes differentiated from C2C12 cells
# Assay: mitochondrial calcium elevation (mitochondrial aequorin luminescence) on caffeine stimulation
# Format: cell-based
# Conditions: 1 mM Mg^2+ + 3 μM Oea; C2C12-derived myotubes; 5 mM caffeine; n=32; P<0.05 Student's t-test; FIG. 1
# Description: To test the effect of Oleuropein aglycone (Oea), Mg^2+ and their combination on mitochondrial activation in living cells, the inventors measured mitochondrial calcium elevation in myotubes differentiated from C2C12 cells.
# C2C12 cells were purchased from ATCC. C2C12 cells were seeded in 384-well plates at a density of 4500 cells per well in DMEM medium, high glucose (Gibco)+10% fetal calf serum. Myotubes were differentiated from C2C12 cells by growing the cells in DMEM containing 2% horse serum, for 6 days.
# Mitochondrial calcium measurements were carried out using myotubes infected with the adenovirus (from Sirion biotech) expressing the luminescent mitochondrially-targeted calcium sensor mitochondrial mutated aequorin (Montero et al., 2004). […] Myotubes were stimulated with 5 mM of caffeine and the total calcium transiting during stimulation was calculated as the area under the curve, during caffeine stimulation. Luminescence was measured at the FLIPR cell imaging reader (Molecular devices). Calibration of the luminescence data into Calcium concentration was carried out using an algorithm as described previously (Alvarez & Montero, 2002). Custom module analysis based on Excel (Microsoft) and GraphPad Prism 7.02 (GraphPad) software was used for quantification.
smiles,measurement,value
C/C=C1/C(O)OC=C(C(=O)OC)[C@H]1CC(=O)OCCc1ccc(O)c(O)c1 (mixture of isomers) [Oleuropein aglycone],mitochondrial calcium rise: real measured effect of the combination vs expected theoretical effect (sum of Oea effect and Mg^2+ effect),synergies with Mg^2+ to activate mitochondria
